From ChEMBL document CHEMBL5506004, “Optimizing drug-like properties of selective butyrylcholinesterase inhibitors for cognitive improvement: Enhancing aqueous solubility by disrupting molecular plane” (Eur J Med Chem, 2024)

Assays:
[1] = target: Cholinesterase (Equus caballus, UniProt P81908); experiment: Inhibition of horse serum BChE using BTC iodide as substrate preincubated for 5 mins followed by substrate addition measured after 2 mins by Ellman's method
[2] = target: Cholinesterase (Homo sapiens, UniProt P06276); experiment: Inhibition of human BChE using BTC iodide as substrate preincubated for 5 mins followed by substrate addition measured after 2 mins by Ellman's method
[3] = system: HT-22; experiment: Cytotoxicity against mouse HT-22 cells assessed as survival rate at 100 uM incubated for 24 hrs by MTT assay relative to control; format: functional; conditions: read-out: Survival
[4] = Cytotoxicity against human L02 cells assessed as survival rate at 100 uM incubated for 24 hrs by MTT assay relative to control; format: toxicity, cell-based; conditions: read-out: Survival
[5] = system: SH-SY5Y; experiment: Cytotoxicity against human SH-SY5Y cells assessed as survival rate incubated for 24 hrs by MTT assay; format: functional, cell-based
[6] = Acute toxicity in ICR mouse assessed as animal death at 1 g/kg, IG; conditions: in vivo, po, 1000 mg/kg
[7] = system: PC-12; experiment: Neuroprotective activity in rat PC12 cells assessed as cell viability pretreated for 2 hrs followed by H2O2 addition measured after 24 hrs by MTT assay; format: functional, cell-based; conditions: time 26.0 hrs
[8] = system: SH-SY5Y; experiment: Neuroprotective activity against amyloid beta (1 to 42)-induced neuronal death in human SH-SY5Y cells assessed as cell viability pretreated for 1 hr followed by amyloid beta (1 to 42) addition measured after 24 hrs by MTT assay; format: functional, cell-based; conditions: dose 1-10 µM, time 25.0 hrs
[9] = Metabolic stability in human liver microsomes assessed as compound metabolism at 2 uM measured for 60 mins by LC-MS/MS analysis; format: ADME, Microsome; conditions: read-out: Drug metabolism
[10] = AUC (0 to infinity) in Sprague-Dawley rat at 10 mg/kg, po measured for 1 to 1440 mins by LC-MS/MS analysis; format: ADME, organism-based; conditions: in vivo, time 1-1440 min
[11] = MRT (infinity) in Sprague-Dawley rat at 10 mg/kg, po measured for 1 to 1440 mins by LC-MS/MS analysis; format: ADME, organism-based; conditions: in vivo, time 1-1440 min
[12] = Tmax in Sprague-Dawley rat at 10 mg/kg, po measured for 1 to 1440 mins by LC-MS/MS analysis; format: ADME, organism-based; conditions: in vivo, time 1-1440 min
[13] = Cmax in Sprague-Dawley rat at 10 mg/kg, po measured for 1 to 1440 mins by LC-MS/MS analysis; format: ADME, organism-based; conditions: Sprague-Dawley, in vivo, time 1-1440 min, read-out: Cmax
[14] = Half life in Sprague-Dawley rat at 10 mg/kg, iv measured for 1 to 1440 mins by LC-MS/MS analysis; format: ADME, organism-based; conditions: in vivo, time 1-1440 min
[15] = Tmax in Sprague-Dawley rat at 10 mg/kg, iv measured for 1 to 1440 mins by LC-MS/MS analysis; format: ADME, organism-based; conditions: in vivo, time 1-1440 min
[16] = Cmax in Sprague-Dawley rat at 10 mg/kg, iv measured for 1 to 1440 mins by LC-MS/MS analysis; format: ADME, organism-based; conditions: in vivo, time 1-1440 min
[17] = Permeability of compound at 50 ug/ml incubated for 18 hrs by PAMPA; format: ADME; conditions: dose 50 µg/ml, read-out: permeability
[18] = AUC (0 to t) in brain of ICR mouse at 10 mg/kg, po measured for 10 to 480 mins by spectroscopy; format: ADME, organism-based; conditions: time 10-480 min

Chain of Cholinesterase (Homo sapiens, UniProt P06276) (P06276 whole entry): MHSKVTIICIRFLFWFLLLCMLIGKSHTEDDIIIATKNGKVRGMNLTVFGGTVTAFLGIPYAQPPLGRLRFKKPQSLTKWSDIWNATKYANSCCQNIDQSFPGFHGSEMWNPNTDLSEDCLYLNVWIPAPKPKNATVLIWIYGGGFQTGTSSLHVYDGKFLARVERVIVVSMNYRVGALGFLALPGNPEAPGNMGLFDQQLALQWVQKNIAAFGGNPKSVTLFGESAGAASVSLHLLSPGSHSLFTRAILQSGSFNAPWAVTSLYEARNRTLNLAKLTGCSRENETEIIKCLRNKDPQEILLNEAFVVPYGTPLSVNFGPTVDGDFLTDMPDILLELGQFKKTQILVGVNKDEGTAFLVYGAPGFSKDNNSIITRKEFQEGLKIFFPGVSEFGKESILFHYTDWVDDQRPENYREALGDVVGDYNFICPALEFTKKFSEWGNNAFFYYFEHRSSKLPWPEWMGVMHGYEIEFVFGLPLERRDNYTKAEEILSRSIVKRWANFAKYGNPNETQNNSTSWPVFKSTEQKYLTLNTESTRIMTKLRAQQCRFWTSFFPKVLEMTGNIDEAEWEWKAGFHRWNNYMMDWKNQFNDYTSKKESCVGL
Chain of Cholinesterase (Equus caballus, UniProt P81908) (P81908 whole entry): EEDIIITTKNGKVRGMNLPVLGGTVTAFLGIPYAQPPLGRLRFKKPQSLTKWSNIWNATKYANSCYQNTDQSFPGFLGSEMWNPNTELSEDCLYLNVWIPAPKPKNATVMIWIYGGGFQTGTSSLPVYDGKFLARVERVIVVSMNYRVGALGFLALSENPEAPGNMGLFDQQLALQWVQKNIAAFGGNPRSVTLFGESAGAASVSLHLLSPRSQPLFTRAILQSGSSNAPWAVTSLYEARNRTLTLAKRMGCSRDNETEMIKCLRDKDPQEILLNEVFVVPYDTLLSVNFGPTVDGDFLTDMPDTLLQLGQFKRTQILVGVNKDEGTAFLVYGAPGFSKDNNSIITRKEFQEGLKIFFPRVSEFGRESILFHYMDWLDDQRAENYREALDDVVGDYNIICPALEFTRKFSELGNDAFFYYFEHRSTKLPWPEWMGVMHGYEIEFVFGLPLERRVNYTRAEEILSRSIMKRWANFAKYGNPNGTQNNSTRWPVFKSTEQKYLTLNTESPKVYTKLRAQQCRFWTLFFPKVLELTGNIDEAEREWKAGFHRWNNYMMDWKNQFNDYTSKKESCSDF

SMILES: Nc1nonc1-c1nc2ccccc2n1CC(=O)Nc1ccc(CCN2CCOCC2)cc1
- IC50 [1]: 11.3 nM
- IC50 [2]: 48.1 nM
- viability at 100 µM [3]: 80.7%
- viability at 24 h, 100 µM [4]: 87.1%
- IC50 [5]: 89800 nM
- Activity [6]: Non-Toxic
- Activity [7]: Dose-Dependent Effect
- Activity [8]: Dose-Dependent Effect
- metabolised at 1 h, 2 µM [9]: < 15%
- AUC(0-inf) [10]: 1730 ng·h/mL
- MRT inf [11]: 9.67 h
- Tmax [12]: 0.389 h
- Cmax [13]: 1060 ng/mL
- half-life [14]: 3.29 h
- Tmax [15]: 3 min
- Cmax [16]: 4610 ng/mL
- Papp at 18 h, 50 ug/ml [17]: 6.64 ×10⁻⁶ cm/s
- AUC(0-t) [18]: 268 ng·h/mL
